Where two headings read alike, the source gives them in different places.
Legend:
LecA [1] = target: T1, LecA (Pseudomonas aeruginosa, UniProt Q05097); experiment: Inhibition of Hemagglutination (HIA), LecA-induced agglutination of rabbit erythrocytes; assay type: cell-based; settings: LecA 6 μg/mL, 25° C.
Method: Inhibition of Hemagglutination (IHA) (or Hemagglutination Inhibition Assays (HIA)).
The LecA lectin agglutinates red blood cells since they are covered by glycoconjugates. The glycomimetics inhibit this agglutination.
For each compound the minimum concentration able to perform inhibition has been evaluated. The method is not very quantitative but mimics natural system.
(§1) More particularly, hemagglutination inhibition assays were performed in U-shaped 96-well microtitre plates. Rabbit erythrocytes were bought from Biomerieux and used without further washing. The erythrocytes were diluted to a 4% solution in NaCl (150 mM). Lectin solutions of 2 mg/mL were prepared in Tris/HCl 20 mM, NaCl 100 mM and CaCl2 100 μM. The hemagglutination unit (HU) was first obtained by the addition of 25 μL of the 4% erythrocyte solution to 25 μL aliquots of sequential (two-fold) lectin dilutions. The mixture was incubated at 25° C. for 60 minutes. The HU was measured as the minimum lectin concentration required to […] hemagglutination. For the following lectin-inhibition assays, lectin concentrations of four times that of the hemagglutination unit were used, i.e. a concentration of 6 μg/mL for LecA. Subsequent assays were then carried out by the addition of 12.5 μL lectin solution (at the required concentration) to 25 μL of sequential dilutions of glycoclusters, monomer molecules and controls. These solutions were then incubated at 25° C. for 2 h then 12.5 μL of 4% erythrocyte solution was added followed by an additional incubation at 25° C. for 30 minutes. The minimum inhibitory concentration for each molecule was determined by simple eye detection.
Compounds 5, 10, 14, 19, 21, 23, 25, 27, 29 and 31 were evaluated towards LecA according to Method 1.

LecA [2] = target: T1, LecA; experiment: Enzyme-Linked Lectin Assay (ELLA), biotinylated LecA binding to polymeric galactose
Method: Enzyme-Linked Lectin Assay (ELLA) Experiments 96-well plates are covered with polymer presenting galactose (which is the monosaccharide that is bound by LecA). The lectin labelled with biotin is added in presence of competing glycomimetics. IC50 can be measured.
More particularly, ELLA experiments were conducted using 96-well microtitre plates (Nunc Maxisorb) coated with polymeric β-D-galactose (5 μg/mL; Lectinity Holding, Inc., Moscow) diluted in carbonate buffer, pH 9.6 (100 μL) for 1 h at 37° C. After blocking at 37° C. for 1 h with 100 μL per well of 3% (w/v) BSA in PBS, plates were incubated at 37° C. for 1 h with 100 μL of biotinylated LecA at 0.1 μg/mL in the presence of serial dilutions of inhibitors. After washing with T-PBS (PBS containing 0.05% Tween), 100 μL of streptavidinperoxidase conjugate (dilution 1:10000; Boehringer-Mannheim) was added and left for 1 h at 37° C. The color was developed using 100 μL per well of 0.05 M phosphate/citrate buffer containing O-phenylenediamine dihydrochloride (0.4 mg/mL) and urea hydrogen peroxide (0.4 mg/mL) (Sigma-Aldrich). The reaction was stopped by the addition of 50 μL of 30% H2SO4. Absorbance was read at 490 nm using a microtitre plate reader (Bio-Rad; model 680).

LecA [3] = target: T1, LecA; experiment: biochemical; assay type: binding
Method: Surface Plasmon Resonance (SPR).
Equivalent method, but performed in miniaturized channel on a galactose-containing chips in a more sophisticated apparatus (Biacore 3000) that allows for a precise determination of the IC50.
More particularly, SPR inhibition experiments were performed on a Biacore 3000 instrument at 25° C. Measurements were carried out on 2 channels with 2 immobilised sugars: α-L-fucose (channel 1), α-D-galactose (channel 2). Immobilization of sugars was performed at 25° C. using running buffer (HBS) at 5 μL/min. Immobilization on each channel (CM5 Chip) was performed independently as follows. First, channel was activated by injecting a fresh mixture of EDC/NHS (35 μL, 420 s). Then, a solution of strepatavidin (100 μg/mL in Na acetate pH 5 buffer) was injected (50 μL, 600 s). Remaining reactive species were quenched by injecting ethanolamine (1M, 35 μL, 420 s). Finally a solution of the desired biotinylated-polyacrylamide-sugar (Lectinity, 200 μg/mL) was coated onto the surface (50 μL, 600 s) through streptavidin-biotin interaction. This procedure led to 804 RU (fucoside) and 796 RU (galactoside) of immobilized sugars on channel 1 and 2 respectively. Inhibition experiments were performed with the galactosylated channel 2 and plots represent subtracted data (channel 2-channel 1).
LecA was injected using running buffer consisting of HEPES 10 mM, NaCl 150 mM, CaCl2 10 mM, Tween P20 0.005%, pH 7.4. Inhibition studies consisted in the injection (150 μL, 10 μL/min, dissociation: 120 s) of incubated (>1 h, r.t.) mixtures of LecA (5 μM) and various concentrations of inhibitor (2-fold cascade dilutions). For each inhibition assay, LecA (5 μM) without inhibitor was injected to observe the full adhesion of the lectin onto the sugar-coated surface (0% inhibition). The CM5 chip was fully regenerated by successive injections of D-Galactose (2×30 μL, 100 mM in running buffer).
Binding was measured as RU over time after blank subtraction, and data were then evaluated using the BIAevaluation Software, version 4.1. For IC50 evaluation, the response (Req-fitted) was considered as the amount of lectin bound to the sugar surface at equilibrium in the presence of a defined concentration of inhibitor. Inhibition curves were obtained by plotting the percentage of inhibition against the inhibitor concentration (on a logarithmic scale) by using Origin 7.0 software (OriginLab Corp.) and IC50 values were extracted from sigmoidal fit of the inhibition curve.

LecA [4] = target: T1, LecA; experiment: biochemical; assay type: binding; remark: listed apart in the source
Method: Isothermal Titration Microcalorimetry (ITC).
The method allows for a direct measurement of the affinity between the glycomimetics and the LecA lectin. The dissociation constant is measured.
More particularly, recombinant lyophilized LecA was dissolved in buffer (0.1 M TrisHCl, 6 μM CaCl2, pH 7.5) and degassed (see Supp. Info. for concentration details). Protein concentration was checked by measurement of optical density using a theoretical molar extinction coefficient of 28000. Carbohydrate ligands were dissolved directly into the same buffer, degassed, and placed in the injection syringe. ITC was performed with a VP-ITC MicroCalorimeter from MicroCal Incorporated. PA-IL was placed into the 1.4478-mL sample cell, at 25° C. Titration was performed with 10-μL injections of carbohydrate ligands every 300 s. Data were fitted with MicroCal Origin 7 software, according to standard procedures. Fitted data yielded the stoichiometry (n), the association constant (Ka) and the enthalpy of binding (ΔH).
Other thermodynamic parameters (i.e. changes in free energy, ΔG, and entropy, ΔS) were calculated from the equation: ΔG=ΔH TΔS=−RT Inka where T is the absolute temperature and R=8.314 J·mol^−1·K^−1. Two or three independent titrations were performed for each ligand tested.

Rabbit erythrocytes = experiment: Hemolysis of red cells observed in the hemagglutination inhibition assay; assay type: cell-based; settings: at the concentration used in the hemagglutination inhibition assay
Method: as §1
The values given in table 1 are inhibiting concentrations of lectin-induced rec cells agglutination. Monocovalent glycoconjugate compound 14 and tetravalent glyconjugate compounds 21 and 23 are the most efficient.

[5] = read-out: IC50 for the inhibition of labelled-LecA binding to a galactosylated polymer (ELLA), biotinylated LecA 0.1 μg/mL, multi-well plate
[6] = read-out: IC50 for the inhibition of label-free LecA binding to a galactosylated chip surface (SPR), LecA 5 μM, 25° C.
[7] = read-out: Dissociation constant for the interaction in solution with LecA (ITC), 25° C., 0.1 M TrisHCl, pH 7.5

T1 sequence (Q05097 whole entry): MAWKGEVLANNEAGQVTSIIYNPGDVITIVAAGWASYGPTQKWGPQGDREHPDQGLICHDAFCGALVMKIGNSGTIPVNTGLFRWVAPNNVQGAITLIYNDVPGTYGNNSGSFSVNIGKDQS

| Compound | inhibiting concentrations of lectin-induced red cells agglutination (minimum inhibitory concentration) (LecA [1]) | IC50 (LecA [2]; [5]) [µM] | IC50 (SPR), in words (LecA [3]) | IC50 (LecA [3]; [6]) [µM] | Hemolysis of red cells (Rabbit erythrocytes) | other results |
| --- | --- | --- | --- | --- | --- | --- |
| O=C(Cn1cc(CO)nn1)NCCOCCO[C@@H]1O[C@H](CO)[C@H](O)[C@H](O)[C@H]1O [Comp. 5, 1-[(1,2,3-Triazol-4-hydroxymethyl-1-yl)-acetamido]-3-oxapent-5-yl β-D-galactopyranoside] | 10 000 μM |  |  |  |  | IC50 (LecA [2]): 250 µM; IC50 (LecA [3]): 58.3 µM; Kd (LecA [4]): 107 µM |
| O=C(CNC(=O)Cn1cc(CO)nn1)NCCO[C@@H]1O[C@H](CO)[C@H](O)[C@H](O)[C@H]1O [Comp. 10, 2-N-[(1,2,3-Triazol-4-hydroxymethyl-1-yl)-acetamido]glycinamido-ethyl β-D-galactopyranoside] | 2 500 μM |  |  |  |  | IC50 (LecA [2]): 300 µM; IC50 (LecA [3]): 60 µM; Kd (LecA [4]): 180 µM |
| CC(C)(C)c1cc2c(OCc3cn(CC(=O)NCCOCCOC4OC(CO)C(O)C(O)C4O)nn3)c(c1)Cc1cc(C(C)(C)C)cc(c1OCc1cn(CC(=O)NCCOCCOC3OC(CO)C(O)C(O)C3O)nn1)Cc1cc(C(C)(C)C)cc(c1OCc1cn(CC(=O)NCCOCCOC3OC(CO)C(O)C(O)C3O)nn1)Cc1cc(C(C)(C)C)cc(c1OCc1cn(CC(=O)NCCOCCOC3OC(CO)C(O)C(O)C3O)nn1)C2 (stereo not drawn) [Comp. 19] | 500 µM | 7 | micromolar range | 1 |  | Kd (LecA [4]; [7]): 0.094 µM; Kd (LecA [4]; read-out: dissociation constant (ITC), 25° C.): 0.094 µM |
| CC(C)(C)c1cc2c(OCc3cn(CC(=O)NCC(=O)NCCOC4OC(CO)C(O)C(O)C4O)nn3)c(c1)Cc1cc(C(C)(C)C)cc(c1OCc1cn(CC(=O)NCC(=O)NCCOC3OC(CO)C(O)C(O)C3O)nn1)Cc1cc(C(C)(C)C)cc(c1OCc1cn(CC(=O)NCC(=O)NCCOC3OC(CO)C(O)C(O)C3O)nn1)Cc1cc(C(C)(C)C)cc(c1OCc1cn(CC(=O)NCC(=O)NCCOC3OC(CO)C(O)C(O)C3O)nn1)C2 (stereo not drawn) [Comp. 21] | 250 µM | 21 |  |  |  |  |
| CC(C)(C)c1cc2c(OCc3cn(CC(=O)NCC(=O)NCCOC4OC(CO)C(O)C(O)C4O)nn3)c(c1)Cc1cc(C(C)(C)C)cc(c1OCc1cn(CC(=O)NCC(=O)NCCOC3OC(CO)C(O)C(O)C3O)nn1)Cc1cc(C(C)(C)C)cc(c1OCc1cn(CC(=O)NCC(=O)NCCOC3OC(CO)C(O)C(O)C3O)nn1)Cc1cc(C(C)(C)C)cc(c1OCc1cn(CC(=O)NCC(=O)NCCOC3OC(CO)C(O)C(O)C3O)nn1)C2 (stereo not drawn) [Comp. 23] | 250 µM | 7 | micromolar range | 1.1 |  | Kd (LecA [4]; [7]): 239 µM |
| CC(C)(C)c1cc2c(OCc3cn(CC(=O)NCC(=O)NCCOC4OC(CO)C(O)C(O)C4O)nn3)c(c1)Cc1cc(C(C)(C)C)cc(c1OCc1cn(CC(=O)NCC(=O)NCCOC3OC(CO)C(O)C(O)C3O)nn1)Cc1cc(C(C)(C)C)cc(c1OCc1cn(CC(=O)NCC(=O)NCCOC3OC(CO)C(O)C(O)C3O)nn1)Cc1cc(C(C)(C)C)cc(c1OCc1cn(CC(=O)NCC(=O)NCCOC3OC(CO)C(O)C(O)C3O)nn1)C2 (stereo not drawn) [Comp. 25] | 625 µM | 14 | micromolar range | 1.2 |  |  |
| CC(C)(C)c1cc2c(OCc3cn(CC(=O)Nc4ccc(OC5OC(CO)C(O)C(O)C5O)cc4)nn3)c(c1)Cc1cc(C(C)(C)C)cc(c1OCc1cn(CC(=O)Nc3ccc(OC4OC(CO)C(O)C(O)C4O)cc3)nn1)Cc1cc(C(C)(C)C)cc(c1OCc1cn(CC(=O)Nc3ccc(OC4OC(CO)C(O)C(O)C4O)cc3)nn1)Cc1cc(C(C)(C)C)cc(c1OCc1cn(CC(=O)Nc3ccc(OC4OC(CO)C(O)C(O)C4O)cc3)nn1)C2 (stereo not drawn) [Comp. 27] |  | 0.8 |  |  | Hemolysis of red cells is observed | IC50 (ELLA), in words (LecA [2]): sub micromolar range |
| CC(C)(C)c1cc2c(OCc3cn(CC(=O)Nc4ccc(OC5OC(CO)C(O)C(O)C5O)cc4)nn3)c(c1)Cc1cc(C(C)(C)C)cc(c1OCc1cn(CC(=O)Nc3ccc(OC4OC(CO)C(O)C(O)C4O)cc3)nn1)Cc1cc(C(C)(C)C)cc(c1OCc1cn(CC(=O)Nc3ccc(OC4OC(CO)C(O)C(O)C4O)cc3)nn1)Cc1cc(C(C)(C)C)cc(c1OCc1cn(CC(=O)Nc3ccc(OC4OC(CO)C(O)C(O)C4O)cc3)nn1)C2 (stereo not drawn) [Comp. 29] |  | 0.9 |  |  | Hemolysis of red cells is observed | IC50 (ELLA), in words (LecA [2]): sub micromolar range |
| CC(C)(C)c1cc2c(OCc3cn(CC(=O)Nc4ccc(OC5OC(CO)C(O)C(O)C5O)cc4)nn3)c(c1)Cc1cc(C(C)(C)C)cc(c1OCc1cn(CC(=O)Nc3ccc(OC4OC(CO)C(O)C(O)C4O)cc3)nn1)Cc1cc(C(C)(C)C)cc(c1OCc1cn(CC(=O)Nc3ccc(OC4OC(CO)C(O)C(O)C4O)cc3)nn1)Cc1cc(C(C)(C)C)cc(c1OCc1cn(CC(=O)Nc3ccc(OC4OC(CO)C(O)C(O)C4O)cc3)nn1)C2 (stereo not drawn) [Comp. 31] |  | 5 |  |  | Hemolysis of red cells is observed |  |
